Experimental data taken from a melting point compilation (Tetko et al.; mined from patent text by program, amines drawn as free bases though some values may be those of a salt).

First: O=C(N1CCOCC1)n1nnc2cc(Cl)c(Cl)cc21
Second: CCOCCOc1ccc(OCC(O)CNCCNC(=O)N2CCOCC2)cc1 (centres undefined)
The melting point of the first is higher: 145 °C for the first, 75 to 77 °C for the second.

Compared with `CC(C)(CO)NS(=O)(=O)c1ccc(Cl)c(N)c1`, `NC(=O)c1cc([N+](=O)[O-])ccc1I` is higher in melting point: 108 °C for the first, 230 to 233 °C for the second.

Compared with `CNC(=O)N(O)C(C)c1ccc(F)cc1` (centres undefined), `CSc1ccc(NC(=O)N(C)O)cc1` is higher in melting point: 130 to 133 °C for the first, 146 to 148 °C for the second.

First: O=C(O)c1cc2ccnc(Cl)c2[nH]1
Second: O=[N+]([O-])c1cnc2ccc(Cl)cc2c1Cl
The melting point of the first is higher: 210 to 214 °C for the first, 118 to 120 °C for the second.

First: COC(=O)C1(S(C)(=O)=O)C(C)NC(C)=CC1c1ccccc1S(=O)(=O)NN(C)C (centres undefined)
Second: CS(=O)(=O)O[C@H]1C[C@@H](C(=O)OCc2ccccc2)N(S(C)(=O)=O)C1
The melting point of the first is higher: 218 to 221 °C for the first, 91 to 92 °C for the second.

First: COC(=O)Nc1ccccc1-c1c(C(=O)OC)c2cc(OC)c(OC)cc2c(=O)n1C
Second: Cc1cccc(-c2ccccc2NC(=N)N(C)C)c1
The melting point of the first is higher: 165 to 170 °C for the first, 116 °C for the second.

Compared with `CS(=O)(=O)N(Cc1cccnc1)c1ccc(Oc2ccccc2)cc1`, `COc1ccc(-c2nc3c(o2)C(=O)c2ccccc2C3=O)cc1` is higher in melting point: 139 to 140 °C for the first, greater than 260 °C for the second.

Compared with `CC(CSC(=O)c1ccccc1)C(=O)N1CC(Oc2ccc(CC3Nc4cc(C(F)(F)F)c(S(N)(=O)=O)cc4S(=O)(=O)N3)cc2)CC1C(=O)O` (centres undefined), `CC(=O)Nc1ccc(-c2ncc(NC(=O)OCc3ccccc3)c(=O)n2CC(=O)NC(Cc2ccccc2)C(=O)C(F)(F)F)cc1` (centres undefined) is higher in melting point: 170 to 182 °C for the first, 235 to 240 °C for the second.

First: CC(C)C(=NO)c1ccc(Br)cc1
Second: O=C(O)c1ccccc1NC(C(=O)O)c1ccc(Br)cc1 (centres undefined)
The melting point of the first is lower: 126 to 136 °C for the first, 216 °C for the second.

First: CC(C)(C)CC1NC(C(=O)NCC2CCC(O)CC2)C(c2cccc(Cl)c2F)C12C(=O)Nc1cc(Cl)ccc12 (centres undefined)
Second: Cc1cccc(NC(=S)NC2N=C(c3ccccc3F)c3ccccc3N(CC(=O)N3CC4CCC(CC4)C3)C2=O)c1 (racemic)
The melting point of the first is higher: 192 °C for the first, 129 to 134 °C for the second.

First: CCCCCCc1nnc2n1-c1ccc(Cl)cc1C(c1ccccc1)=NC2
Second: Nc1ncc2cc(-c3c(Cl)cccc3Cl)c(=O)n(CCCc3ccccc3)c2n1
The melting point of the first is lower: 75 to 78 °C for the first, 161 to 163 °C for the second.

First: Cc1cc(SC(C)C)c(NC(=O)CCCSc2nc3ccccc3s2)c(SC(C)C)n1
Second: Cc1ccc(NC(=N)Nc2nc(-c3ccccc3)cs2)cc1
The melting point of the first is lower: 116 to 117 °C for the first, 152 to 153 °C for the second.

Compared with `O=C(OCOC(=O)c1ccccc1)Oc1ccc([N+](=O)[O-])cc1`, `Cc1oc(-c2ccccc2)nc1CCOc1ccc(NC(=O)C(=O)O)cc1` is higher in melting point: 69 to 71 °C for the first, 196 to 198 °C for the second.

First: COCCc1nc2c(N)nc3ccccc3c2n1CCCCNC(=O)c1nccc2ccccc12
Second: N#Cc1cccc(C(=O)Nc2cccc(C(=O)NCCC(=O)OCc3ccccc3)c2)c1
The melting point of the first is lower: 61 to 63 °C for the first, 128 to 131 °C for the second.

First: Cc1cccc(NC(=O)NCC(=O)N(CC(=O)N2CCCCCC2)c2ccccc2)c1
Second: Clc1ccc(CN2CC=C(/C=C/c3ccccc3)CC2)cc1
The melting point of the first is higher: 245 °C for the first, 141 to 142 °C for the second.

First: Cc1cccc(C)c1NCCNCC(O)COc1cccc2[nH]c3ccccc3c12 (centres undefined)
Second: CCOC(=O)c1cc(=O)c2c(OCC(O)COc3ccc(C#N)cc3)cccc2o1 (centres undefined)
The melting point of the first is higher: 162 to 163 °C for the first, 137 to 139 °C for the second.

Compared with `O=C1NCC2(CCN(Cc3ccccc3)CC2)O1`, `O=[N+]([O-])C(Sc1ccccc1)=C1NCCCS1` is lower in melting point: 159 to 161 °C for the first, 144 to 147 °C for the second.

Compared with `CCOC(=O)NC1=NCC(c2ccc(F)cc2)N1C` (centres undefined), `O=C(CC1CCCCC1)Nc1n[nH]c(-c2ccc(F)cc2)c1-c1ccncc1` is higher in melting point: 117 to 118 °C for the first, 296 to 300 °C for the second.

First: CC1(C)CCc2cc(OCc3ccccc3)c(O)c([N+](=O)[O-])c2C1=O
Second: CC(C(=O)O)c1ccc2c(c1)Cc1ccccc1-2 (centres undefined)
The melting point of the first is lower: 146 to 149 °C for the first, 180 to 182 °C for the second.

First: CCOC(=O)c1cn(C(C)CCl)c2c(F)c(F)c(F)cc2c1=O (centres undefined)
Second: CCOC(=O)c1c(O)c2cccnc2n(CC)c1=O
The melting point of the first is higher: 190 to 191 °C for the first, 120 to 122 °C for the second.

First: CO[C@@H](C(=O)N[C@H]1CC[C@@H](OC(=O)CCc2ccccc2)CNC1=O)[C@H](O)[C@@H](O)[C@H](O)/C=C/C(C)(C)C
Second: COCCO[C@@H]1c2ccc3c(nc(C4CC4)n3C)c2O[C@H](c2ccccc2)[C@H]1O
The melting point of the first is lower: 75 to 77 °C for the first, 133 °C for the second.

Compared with `Cc1c(CC(=O)N[C@@H](CO)C(=O)O)cc(-c2ccc(S(C)(=O)=O)cc2)n1-c1ccc(F)cc1`, `C[C@@H](NC(=O)c1csc(-c2ccc(Cl)cc2)n1)[C@](O)(Cn1cncn1)c1ccc(F)cc1F` is higher in melting point: 120 °C for the first, 201 to 204 °C for the second.

First: O=c1[nH]c2ncc(-c3ccc(-c4cc[nH]n4)cc3)nc2n1CC1CCCCC1
Second: c1ccc2c(c1)NCc1c(-c3noc(C4CC4)n3)ncn1-2
The melting point of the first is higher: 292 to 294 °C for the first, 243 to 245 °C for the second.

Compared with `OC1(Cn2cncn2)CCCCC12OC2c1ccc(Cl)cc1` (centres undefined), `COc1ccc2c(c1)C1(CCNC1)CC2O` (centres undefined) is lower in melting point: 150 °C for the first, 135 to 138 °C for the second.

First: C=CCc1cc(COC(=O)C(C)(C)C)ccc1C#CC1(O)CN2CCC1CC2 (centres undefined)
Second: COc1ccc(CS[C@H]2C[C@@H](C(=O)N3CCN(C)CC3)N(C(=O)OCc3ccc([N+](=O)[O-])cc3)C2)cc1
The melting point of the first is lower: 73 °C for the first, 140 to 141 °C for the second.

Compared with `CC(C)C(NC(=O)CN1C=Cc2c([nH]c3c(C(=O)O)cccc23)C1)C(=O)C(F)(F)F` (centres undefined), `COc1ccc(C(=O)Nc2c(Cl)cncc2Cl)c2c1OC(C)(C)C=C2` is lower in melting point: 260 to 262 °C for the first, 174 to 178 °C for the second.

Compared with `CC(C)(c1ccc(Oc2ccc(N=C=O)cc2)cc1)c1ccc(Oc2ccc(N=C=O)cc2)cc1`, `COc1ccc2cc(C(C)COC(=O)c3cc(O)c4c(c3)C(=O)c3cccc(O)c3C4=O)ccc2c1` (centres undefined) is higher in melting point: 68 to 69 °C for the first, 147 to 151 °C for the second.

First: COc1nc2cc(Cl)cc(C#CCO)c2nc1OC
Second: COc1cc(C=O)cc(Cl)c1OCCBr
The melting point of the first is higher: 137 to 140 °C for the first, 52 to 54 °C for the second.

First: N#Cc1cc(-c2ccccc2)[nH]c1Sc1ccc(N)cc1
Second: O=C1N=NC(Cc2ccc(OCCc3coc(-c4ccccc4)n3)cc2)O1 (centres undefined)
The melting point of the first is higher: 146 to 147 °C for the first, 142 to 144 °C for the second.

First: O=[N+]([O-])C1=C2N(Cc3ccc(Cl)nc3)CCN2C2CCCC1O2 (centres undefined)
Second: COc1cccc(-c2cc(Cl)ncn2)c1
The melting point of the first is higher: 175 °C for the first, 112 to 115 °C for the second.

First: COc1ccc(OCCCCl)c(C2(SC)Sc3ccccc3N(C)C2=O)c1 (centres undefined)
Second: CC(C)n1nc(-c2ccc(OCCCCl)cc2)c2sccc2c1=O
The melting point of the first is higher: 135 to 137 °C for the first, 92 to 94 °C for the second.

First: Cc1cccc2c1C=Cc1ccccc1C2(O)CCCN(C)C (centres undefined)
Second: CC(C)(C)OC(=O)N1CCN(c2nc(N)nc3nc(N)c(-c4ccccc4)nc23)CC1
The melting point of the first is lower: 141 to 143 °C for the first, 245 to 246 °C for the second.

First: CCCCc1ncc(/C=C(\Cc2cccs2)c2nnn[nH]2)n1Cc1ccc(-c2nnn[nH]2)cc1
Second: ON=c1cc(-c2cc3cccn3cn2)oc2ccc(OCCc3cccc(C(F)(F)F)c3)cc12
The melting point of the first is higher: 227 to 230 °C for the first, 217 to 218 °C for the second.

First: COc1ccc(C2CCN(c3c(C)c(C)c4c(c3C)C(N3CCc5ccccc5CC3)C(C)(C)O4)CC2)cc1OC (centres undefined)
Second: COc1ccccc1NC(=O)Nc1nc(Nc2ccccc2-c2ccccc2)nc(N2Cc3ccccc3CC2C(=O)O)n1 (centres undefined)
The melting point of the first is lower: 136 to 138 °C for the first, 138 to 145 °C for the second.

In the case of `O=C(Cl)/C=C/c1cccc(Br)c1`, the melting point is reported as 85 to 86 °C.
